“Also recorded” adds a separate entry of the source. Where two headings read alike, the source gives them in different places.
Legend:
DNA = conditions: estimated; unit not given; cited from earlier work
GtfE = target: T1, GtfE (Amycolatopsis orientalis, UniProt Q9AFC6); assay: GtfE steady-state kinetics and transfer of NDP-glucose derivatives to heptapeptide aglycone; type: biochemical; conditions: for Km: NDP-sugar donor varied, acceptor vancomycin aglycone held at 1 mM; for Km / kcat: pH 9; for kcat: acceptor vancomycin aglycone 1 mM; for recognition / transfer of the sugar by GtfE: vancomycin and teicoplanin aglycone acceptors, HPLC and mass spectrometry; for catalytic efficiency relative to native substrate: vancomycin aglycone as acceptor
T1 construct: made in house; host or cells: Escherichia coli
T1 sequence (Q9AFC6 1-409): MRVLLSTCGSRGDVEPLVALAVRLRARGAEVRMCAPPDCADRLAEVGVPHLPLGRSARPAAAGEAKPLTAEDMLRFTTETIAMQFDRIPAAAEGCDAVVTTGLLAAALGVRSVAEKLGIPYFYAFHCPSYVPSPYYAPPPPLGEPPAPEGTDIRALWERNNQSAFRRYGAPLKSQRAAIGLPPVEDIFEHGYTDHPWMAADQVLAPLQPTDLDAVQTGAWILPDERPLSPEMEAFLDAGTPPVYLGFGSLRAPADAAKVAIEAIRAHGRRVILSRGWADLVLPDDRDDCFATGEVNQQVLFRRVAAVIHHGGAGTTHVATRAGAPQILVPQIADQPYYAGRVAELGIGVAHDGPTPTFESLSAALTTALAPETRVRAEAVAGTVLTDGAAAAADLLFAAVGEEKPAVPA
Experimental: (The acceptor substrate, the vancomycin aglycone, was held constant at 1 mM in each experiment.)
Biochemistry 2001; 40(15):4745-55; and Solenberg et al. Production of hybrid glycopeptide antibiotics in vitro and in Streptomyces toyocaensis. Chem Biol 1997; 4(3):195-202. Reactions were carried out and analyzed by HPLC as previously described. […] Each 100 μL reaction contained either 1 mM vancomycin aglycone or 0.5 mM teicoplanin aglycone. […] Reactions with GtfD also contained 2 mM UDP-L-4-epi-vancosamine. 50 μL time points were taken at 0 and 20 h, and quenched with 9 vol methanol. After centrifugation, the supernatants were dried and resuspended in water for HPLC analysis. All glycosylation reactions were monitored by UV (285 nm) using a Vydac C18 small pore column with a linear gradient of 0-20 percent acetonitrile in water with 0.1 percent trifluoracetic acid. The molecular weight of new products was analyzed by Maldi-TOF mass spectrometry using a Perseptive Biosystems Voyager-DE STR mass spectrometer.
All reactions were carried out with 1 mM vancomycin aglycone as the acceptor substrate. […] Each experiment was performed in duplicate or triplicate.

[1] = target: thymidylyltransferase (rmlA-encoded Ep) (Salmonella typhimurium, UniProt P26393); conditions: Lindquist et al. 1993, cited from earlier work
[2] = read-out: Km, forward direction

Chain of thymidylyltransferase (rmlA-encoded Ep) (P26393 whole entry): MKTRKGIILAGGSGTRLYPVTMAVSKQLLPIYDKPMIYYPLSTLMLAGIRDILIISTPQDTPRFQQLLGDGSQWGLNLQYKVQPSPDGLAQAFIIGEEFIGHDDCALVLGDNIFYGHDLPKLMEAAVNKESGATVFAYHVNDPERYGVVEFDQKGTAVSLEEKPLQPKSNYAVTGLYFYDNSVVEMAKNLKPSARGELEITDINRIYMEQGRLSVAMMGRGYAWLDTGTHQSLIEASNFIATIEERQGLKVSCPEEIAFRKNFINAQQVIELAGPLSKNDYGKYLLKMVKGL

| Molecule | Km (GtfE) [µM] | kcat (GtfE) [s⁻¹] | other results |
| --- | --- | --- | --- |
| CCN[C@H]1CO[C@@H](O[C@H]2[C@H](O[C@H]3C#CC=CC#C[C@@]4(O)CC(=O)C(NC(=O)OC)=C3/C4=C\CSSSC)O[C@H](C)[C@@H](NO[C@H]3C[C@H](O)[C@H](SC(=O)c4c(C)c(I)c(O[C@@H]5O[C@@H](C)[C@H](O)[C@@H](OC)[C@H]5O)c(OC)c4OC)[C@@H](C)O3)[C@@H]2O)C[C@@H]1OC (stereo in doubt) [calicheamicin, calicheamicin γ1^I] | – | – | affinity (DNA binding) (DNA): 10^6-10^8 |
| Cc1cn(C2CC(O)C(COP(=O)(O)OP(=O)(O)OC3OC(CO)C(O)C(N)C3O)O2)c(=O)[nH]c1=O [TDP-3-NH2-glucose, Thymidine 5′-(3-amino-3-deoxy-α-D-glucopyranosyl diphosphate)] | 720 ± 60 | 0.06 ± 0.0033 | – |
| Cc1cn([C@H]2C[C@H](O)[C@@H](COP(=O)(O)OP(=O)(O)O[C@H]3O[C@H](CO)[C@@H](N)[C@H](O)[C@H]3O)O2)c(=O)[nH]c1=O [TDP-4-NH2-glucose, Thymidine 5′-(4-amino-4-deoxy-α-D-glucopyranosyl diphosphate)] | 1100 ± 100 | 0.0217 ± 0.0017 | – |
| Cc1cn([C@H]2C[C@H](O)[C@@H](COP(=O)(O)OP(=O)(O)O[C@H]3O[C@H](CO)[C@@H](O)[C@H](O)[C@H]3O)O2)c(=O)[nH]c1=O [TDP-glucose, Thymidine 5′-(α-D-glucopyranosyl diphosphate), reference compound] | 620 ± 90 | 0.483 ± 0.033 | Km ([1]; read-out: Km, reverse reaction): 83 µM |
| NC1C(OP(=O)(O)OP(=O)(O)OCC2OC(n3ccc(=O)[nH]c3=O)C(O)C2O)OC(CO)C(O)C1O [UDP-2-NH2-glucose, Uridine 5′-(2-amino-2-deoxy-α-D-glucopyranosyl diphosphate)] | 790 ± 80 | 0.045 ± 0.0033 | – |
| [N-]=[N+]=NC1C(OP(=O)(O)OP(=O)(O)OCC2OC(n3ccc(=O)[nH]c3=O)C(O)C2O)OC(CO)C(O)C1O (centres unmarked) [UDP-2-azido-glucose] | – | – | recognition / transfer of the sugar by GtfE (GtfE): inadequate for transfer |
| O=c1ccn(C2OC(COP(=O)(O)OP(=O)(O)OC3OC(CO)C(O)C(O)C3F)C(O)C2O)c(=O)[nH]1 (centres unmarked) [UDP-2-fluoro-glucose] | – | – | recognition / transfer of the sugar by GtfE (GtfE): inadequate for transfer; also recorded: not recognized |
| O=c1ccn([C@@H]2O[C@H](COP(=O)(O)OP(=O)(O)O[C@H]3O[C@H](CCl)[C@@H](O)[C@H](O)[C@H]3O)[C@@H](O)[C@H]2O)c(=O)[nH]1 [UDP-6-Cl-glucose, UDP-6-chloro-glucose] | 21000 ± 6000 | 0.005 ± 0.0017 | catalytic efficiency relative to native substrate (GtfE): less than 0.1% |
| NC[C@H]1O[C@H](OP(=O)(O)OP(=O)(O)OC[C@H]2O[C@@H](n3ccc(=O)[nH]c3=O)[C@H](O)[C@@H]2O)[C@H](O)[C@@H](O)[C@@H]1O [UDP-6-NH2-glucose, Uridine 5′-(6-amino-6-deoxy-α-D-glucopyranosyl diphosphate)] | 1200 ± 200 | 0.025 ± 0.0033 | – |
| [N-]=[N+]=NCC1OC(OP(=O)(O)OP(=O)(O)OC[C@H]2O[C@@H](n3ccc(=O)[nH]c3=O)[C@H](O)[C@@H]2O)C(O)C(O)C1O (some centres unmarked) [UDP-6-azido-glucose] | – | – | recognition / transfer of the sugar by GtfE (GtfE): inadequate for transfer |
| O=C[C@H](O)[C@@H](O)[C@H](O)CO [UDP-xylose, UDP xylose, reference compound] | – | – | catalytic efficiency relative to native substrate (GtfE): about 10% |
| Cc1cn([C@H]2C[C@H](O)[C@@H](COP(=O)(O)OP(=O)(O)OP(=O)(O)O)O2)c(=O)[nH]c1=O [dTTP] | – | – | Km [1, 2]: 20 µM |
| O=P(O)(O)OP(=O)(O)O [diphosphate] | – | – | Km ([1]; read-out: Km, reverse reaction): 150 µM |
| O=P(O)(O)O[C@H]1O[C@H](CO)[C@@H](O)[C@H](O)[C@H]1O [α-D-glucose-1-phosphate] | – | – | Km [1, 2]: 110 µM |
| TDP-2-fluoro-glucose | – | – | recognition / transfer of the sugar by GtfE (GtfE): not detectably processed |

— patent US8198419B2, “Glycorandomization and production of novel erythromycin analogs” (Wisconsin Alumni Research Foundation, priority 2001, dated 2012)
